From patent publication US5726155A, “Regulation of oxidative burst using LMWG-derived peptides and analogs” (The Scripps Research Institute, priority 1993, dated 1998)
Where no end group is shown, it is not given here.

How the values were obtained:
NADPH oxidase [1] = target: T1, NADPH oxidase (Homo sapiens, UniProt P04839+P13498+P14598+P19878); assay: cell-free NADPH oxidase assay (O2- production), inhibition by peptides; type: biochemical; settings: for Inhibitory Activity: Table 3, peptide incubated five minutes before 90 μM SDS or 100 μM arachidonic acid; for Percent Inhibition: cell-free system
T1 construct: 4×10^5 cell equivalents (cell eq) of neutrophil membranes; of neutrophil cytosol, or (2) 100 nM each of baculovirus recombinant p47-phox and p67-phox; from tissue; host or cells: neutrophil membranes and cytosol (human neutrophils, leukapheresis or blood)
Protocol: Production of O2^- by NADPH oxidase may be monitored in a cell-free system at 25° C. by following the superoxide dismutase (SOD)-inhibitable reduction of cytochrome c at […], as described in Curnutte, et al., PNAS USA 86: 825-829 (1989). The method may be described essentially as follows.
Activation of the dormant respiratory burst oxidase in a cell-free system by SDS in the presence of cytosol (or partially-purified cytosol factor components) was monitored by measuring O2^- production by the activated oxidase. O2^- generation was determined by a continuous assay in which superoxide dismutase-inhibitable cytochrome c reduction was followed with time at 25° C. in a double-beam spectrophotometer at 550 nm by a modification of the method described in Curnutte, et al., J. Biol. Chem. 262: 6450-6452 (1987). Assay mixtures contained (final concentration) 0.15 mM cytochrome c, 6.5 mM MgCl2, 87 mM KCl, 2.6 mM NaCl, 8.7 mM PIPES (pH 7.3), 0.27 mM ATP (Sigma), 0.33 mM EGTA, 0.16 mM NADPH, and 0.04 mM SDS, plus 0.9×10^7 cell eq of cytosol and 1.55×10^6 cell eq of membranes solubilized in deoxycholate (0.94 mM) in 375 μl. The reference cuvette also received 22.5 μg of superoxide dismutase. All components except NADPH were mixed in the cuvette and allowed to stand for 3.5 minutes to allow activation of the oxidase by SDS. Reactions were then started with NADPH and followed at 550 nm on a Uvikon 810 dual-beam recording spectrophotometer (Kontron, Zurich). Data were collected on a strip chart recorder and the maximal velocity of the reaction, which occurred during the first 20 sec, was used to calculate the oxidase activity.
A modification of the above-noted method was used for most of the studies described herein and may be summarized as follows. Reaction mixtures (generally, in 96-well microtiter plates) typically contain 0.1 mM cytochrome c, 6.5 mM MgCl2, 87 mM KCl, 2.6 mM NaCl, 8.7 mM PIPES (pH 7.3), 10 μM GTPγS, 0.16 mM NADPH, and 4×10^5 cell equivalents (cell eq) of neutrophil membranes (about 1.6 μg protein), in a total volume of 150 μl. In addition, reactions contain varying amounts of recombinant LMWG protein, and either (1) 8 μl (7.2×10^5 cell eq.; about 18 μg protein) of neutrophil cytosol, or (2) 100 nM each of baculovirus recombinant p47-phox and p67-phox as specified herein. Control wells (paired with each reaction well) contained 9 μg SOD, to account for non-O2^- -dependent reduction of cytochrome c. Superoxide production is initiated by the addition of SDS to give a final concentration of either 90 μM (with recombinant p47-phox/p67-phox) or 110 μM (with neutrophil cytosol). Maximum rates of absorbance change, calculated from the first derivative of the time course using Softmax software (Molecular Devices, release 2.01, Menlo Park, Calif., were converted to nmol O2^- generated/min/10^7 cell eq of membrane, after subtracting the rate achieved in the presence of SOD from that obtained in its absence, to give the rate of O2^- -dependent cytochrome c reduction, by using an extinction coefficient of 20.5 mM^-1 cm^-1 for reduced minus oxidized cytochrome c, a value determined experimentally for the 550±1-nm filter used in the kinetic microplate reader and the path length of the 250-μl reaction mixture. (See, e.g., Curnutte, et al., PNAS USA 86: 825-829 (1989).
Peptides were tested for oxidase inhibiting activity using the cell-free assay of Curnutte, et al. (PNAS USA 86: 825-829 (1989)). Peptides were added at indicated concentrations and incubated for five minutes at room temperature prior to initiation of O2^- formation using either 90 μM SDS or 100 μM arachidonic acid as an activating stimulus.

NADPH oxidase [2] = assay: cell-free NADPH oxidase assay with GAP proteins; type: biochemical, human
Protocol: Subcellular fractions from human neutrophils for use in cell-free NADPH oxidase assays were prepared as described previously (Curnutte, et al., PNAS USA 86: 825-829 (1989)). Cell-free oxidase assays were conducted as described in Heyworth, et al., Mol. Biol. Cell 4: 261-269 (1993) and Curnutte, et al., Id. (1989). In order to deplete endogenous guanine nucleotides for some experiments, cytosol was dialyzed overnight against three 2-liter volumes of 100 mM KCl/3 mM NaCl/3.5 mM MgCl2 /10 mM PIPES, pH 7.3, as previously described (Peveri, et al., PNAS USA 89: 2494-2498 (1992)). Reaction mixtures contained 4×10^5 cell equivalents (cell eq) of human neutrophil membranes and 1.8×10^6cell eq of neutrophil cytosol. Reactions were performed in the absence of GTPγS, unless otherwise indicated (see FIGS. 3, 7, 8, and 9, and accompanying legends), and with the indicated concentrations of p190 GAP. Rates of O2^- production were calculated from maximum rates of absorbance change after initiation of the reaction with 110 μM SDS.

Rac2 protein = Rac2 protein (Homo sapiens, UniProt P15153); assay: guanine nucleotide (GDP/GTP) exchange; type: biochemical; settings: FIG. 4
Rap1A = target: T2, Rap1A (Homo sapiens, UniProt P62834); assay: guanine nucleotide (GDP/GTP) exchange; type: biochemical
T2 construct: Recombinant full length Rap1a, H-Ras, and CDC42Hs were purified after expression in a baculovirus/Sf9 insect cell system; made in house; host or cells: baculovirus/Sf9 insect cells
T2 sequence (P62834 1-184): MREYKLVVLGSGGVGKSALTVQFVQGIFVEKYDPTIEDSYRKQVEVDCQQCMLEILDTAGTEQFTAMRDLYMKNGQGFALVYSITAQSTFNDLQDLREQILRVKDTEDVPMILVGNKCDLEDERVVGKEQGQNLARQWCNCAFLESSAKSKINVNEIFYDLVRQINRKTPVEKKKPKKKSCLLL

T1 sequence (P04839 2-570 limits assumed): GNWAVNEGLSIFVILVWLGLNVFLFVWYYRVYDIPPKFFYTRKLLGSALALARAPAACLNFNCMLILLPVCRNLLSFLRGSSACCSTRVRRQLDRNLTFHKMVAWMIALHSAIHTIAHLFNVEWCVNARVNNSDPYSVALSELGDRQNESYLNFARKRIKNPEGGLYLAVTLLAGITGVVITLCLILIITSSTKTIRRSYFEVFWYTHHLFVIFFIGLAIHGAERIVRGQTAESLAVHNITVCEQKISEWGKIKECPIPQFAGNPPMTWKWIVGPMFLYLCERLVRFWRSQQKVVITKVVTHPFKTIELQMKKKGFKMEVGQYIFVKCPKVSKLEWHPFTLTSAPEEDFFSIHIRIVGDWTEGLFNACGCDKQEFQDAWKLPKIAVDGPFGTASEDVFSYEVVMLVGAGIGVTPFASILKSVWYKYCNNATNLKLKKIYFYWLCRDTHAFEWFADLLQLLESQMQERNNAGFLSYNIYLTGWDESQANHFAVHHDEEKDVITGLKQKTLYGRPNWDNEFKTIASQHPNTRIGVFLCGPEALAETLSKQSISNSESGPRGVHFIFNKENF
T1 sequence (P13498 2-195 limits assumed): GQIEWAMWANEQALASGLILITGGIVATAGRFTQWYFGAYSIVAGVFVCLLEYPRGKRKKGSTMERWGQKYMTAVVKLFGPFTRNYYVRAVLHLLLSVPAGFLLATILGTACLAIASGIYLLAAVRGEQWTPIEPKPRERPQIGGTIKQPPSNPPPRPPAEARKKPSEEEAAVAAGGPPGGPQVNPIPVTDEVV
T1 sequence (P14598 whole entry): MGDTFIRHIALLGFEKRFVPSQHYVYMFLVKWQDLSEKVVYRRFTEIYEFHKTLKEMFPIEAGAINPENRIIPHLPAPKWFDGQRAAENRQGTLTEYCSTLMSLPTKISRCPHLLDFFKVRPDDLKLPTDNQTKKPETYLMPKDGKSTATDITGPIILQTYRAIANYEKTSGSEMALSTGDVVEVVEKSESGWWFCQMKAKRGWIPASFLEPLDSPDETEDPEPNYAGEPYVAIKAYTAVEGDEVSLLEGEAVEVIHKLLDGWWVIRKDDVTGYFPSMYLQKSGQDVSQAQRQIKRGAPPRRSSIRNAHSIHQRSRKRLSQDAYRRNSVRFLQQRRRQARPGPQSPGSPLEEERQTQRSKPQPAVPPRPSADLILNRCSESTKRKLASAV
T1 sequence (P19878 whole entry): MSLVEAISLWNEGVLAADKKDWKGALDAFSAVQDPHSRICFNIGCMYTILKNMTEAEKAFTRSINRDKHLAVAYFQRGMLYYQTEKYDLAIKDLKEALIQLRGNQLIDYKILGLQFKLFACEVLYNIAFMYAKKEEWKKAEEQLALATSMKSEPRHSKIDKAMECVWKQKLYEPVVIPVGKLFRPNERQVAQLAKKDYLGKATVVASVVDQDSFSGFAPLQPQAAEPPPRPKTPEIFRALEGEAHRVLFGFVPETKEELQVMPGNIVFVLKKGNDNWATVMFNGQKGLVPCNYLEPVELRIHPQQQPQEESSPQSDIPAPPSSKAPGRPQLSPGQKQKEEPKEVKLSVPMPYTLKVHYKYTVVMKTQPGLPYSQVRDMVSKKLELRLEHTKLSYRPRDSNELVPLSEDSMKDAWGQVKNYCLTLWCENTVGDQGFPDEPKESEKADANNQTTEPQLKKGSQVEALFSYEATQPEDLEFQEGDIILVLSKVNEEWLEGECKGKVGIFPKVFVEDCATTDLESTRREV

Compound: CPPPVKKRKRK [Rac1 aa178-188, CPPPVKKRKRK]
- Inhibitory Activity (NADPH oxidase [1]): Active

Compound: TISSLFSRLFGKKQ [ARF 27, TISSLFSRLFGKKQ]
- Percent Inhibition (NADPH oxidase [1]; 27 μg/ml peptide): 55.9%
- Percent Inhibition (NADPH oxidase [1]; 100 μg/ml peptide): 91.3%

Compound: GLTISSLFSRLFGKKQ [ARF 26, GLTISSLFSRLFGKKQ]
- Percent Inhibition (NADPH oxidase [1]; 27 μg/ml peptide): 30.9%
- Percent Inhibition (NADPH oxidase [1]; 100 μg/ml peptide): 100%

Compound: EKKKPKKKS [Rap1A aa172-180, EKKKPKKKS]
- Inhibitory Activity (NADPH oxidase [1]): Active

Compound: GTPγS-bound form of RhoA: recombinant Sf9 cell RhoA bound to GTPγS
- reversal of p190 GAP inhibition of NADPH oxidase by added GTP-binding protein (NADPH oxidase [2]; 280 nM p190 GAP, Rac1.GTPγS 30 nM, RhoA.GTPγS 100 nM, Rac2 (Q61L) 10 nM, FIG. 8): did not reverse inhibition

Compound: PGKARKKSS [Rap1B aa172-180, PGKARKKSS]
- Inhibitory Activity (NADPH oxidase [1]): Active

Compound: SSLFSRLFGKKQ [ARF 28, SSLFSRLFGKKQ]
- Percent Inhibition (NADPH oxidase [1]; 27 μg/ml peptide): 43.5%
- Percent Inhibition (NADPH oxidase [1]; 100 μg/ml peptide): 87.6%

Compound: MGCTVSAEDKAAAER [Gi #5, MGCTVSAEDKAAAER, reference compound]
- Inhibitory Activity (NADPH oxidase [1]): Inactive

Compound: GELAQKLEQALQKLA [ECG 125, GELAQKLEQALQKLA, reference compound]
- Percent Inhibition (NADPH oxidase [1]; 100 μg/ml peptide): 23.3%
- Percent Inhibition (NADPH oxidase [1]; 200 μg/ml peptide): 34.0%
- Inhibitory Activity (NADPH oxidase [1]): Inactive

Compound: c1ccc2c(c1)[I+]c1ccccc1-2 [diphenylene iodonium, reference compound]
- inhibition of O2- formation when added after initiation with SDS (NADPH oxidase [2]; added 1.7 or 5 minutes after SDS, p190 GAP 350 nM, DPI 1 μM, FIG. 9): could be inhibited

Compound: KNVFDEAILAALEPPEPKKSRR [CDC42Hs]
- Inhibitory Activity (NADPH oxidase [1]): Inactive

Compound: GLAQKLLEALQKALLA [ICS4, GLAQKLLEALQKALLA]
- Percent Inhibition (NADPH oxidase [1]; 27 μg/ml peptide): 86.8%
- Percent Inhibition (NADPH oxidase [1]; 100 μg/ml peptide): 99.8%
- Inhibitory Activity (NADPH oxidase [1]): Active

Compound: GEHAQKHEQALQKLA [ECG 163, GEHAQKHEQALQKLA, reference compound]
- Percent Inhibition (NADPH oxidase [1]; 100 μg/ml peptide): 8.0%
- Percent Inhibition (NADPH oxidase [1]; 200 μg/ml peptide): 5.1%
- Inhibitory Activity (NADPH oxidase [1]): Inactive

Compound: LTQRGLKTVFDE [Rac1 aa161-172, LTQRGLKTVFDE]
- Inhibitory Activity (NADPH oxidase [1]): Inactive

Compound: CPQPTRQQKRA [Rac2 aa178-188, CPQPTRQQKRA]
- Inhibitory Activity (NADPH oxidase [1]): Active

Compound: INLKALAALAKKIL-NH2 [Mastoparan]
- inhibition of NADPH oxidase activity, in words (NADPH oxidase [1]; FIG. 1, dose/response conditions): most dramatic
- Inhibitory Activity (NADPH oxidase [1]): Active
- GDP/GTP exchange on Rac (Rac2 protein): stimulate GDP/GTP exchange
- GDP/GTP exchange on Rap1A (Rap1A): stimulate GDP/GTP exchange

Compound: SKFEDLNKRKDT [Gi #2, SKFEDLNKRKDT, reference compound]
- Inhibitory Activity (NADPH oxidase [1]): Inactive

Compound: EKLKEKKLTPI [Rac1 aa127-137, EKLKEKKLTPI]
- Inhibitory Activity (NADPH oxidase [1]): Inactive
